Calls of active or inactive are those of the source. No cut-off for these calls is given here.
How the values were obtained:
[1] = test system: Staphylococcus aureus; experiment: Synergistic […] activity against Staphylococcus aureus ATCC29213 assessed as fractional inhibitory concentration index incubated for 22 to 24 hrs in presence of fusidic acid by CLSI based broth microdilution method; format: functional; settings: time 22-24 hrs
[2] = test system: Staphylococcus aureus; experiment: Bactericidal activity against methicillin-resistant Staphylococcus aureus NCTC10442 assessed as cell killing at 4 to 8 times of MIC measured up to 24 hrs by time kill assay; format: functional, organism-based
[3] = test system: Acinetobacter baumannii; experiment: Synergistic […] activity against Acinetobacter baumannii ATCC17978 assessed as fractional inhibitory concentration index incubated for 22 to 24 hrs in presence of gentamicin by CLSI based broth microdilution method; format: functional; settings: time 22-24 hrs
[4] = Cytotoxicity against HEK293 cells assessed as viable cells at 100 ug/ml incubated for 24 hrs by CCK-8 assay relative to control; format: toxicity, cell-based; settings: human, at 100 µg/mL, read-out: Activity
[5] = test system: Staphylococcus aureus; experiment: Disruption of cell membrane integrity in methicillin-resistant Staphylococcus aureus NCTC10442 assessed as increase in red fluorescence at 8 time of MIC measured after 15 mins by SYTO 9/PI staining based laser confocal microscopic analysis; format: functional, organism-based
[6] = test system: Staphylococcus aureus; experiment: Antibacterial activity against Staphylococcus aureus ATCC29213 assessed as reduction in bacterial growth incubated for 22 to 24 hrs in presence of FeCl3 by CLSI based broth microdilution method; format: functional; settings: time 22-24 hrs
[7] = test system: Staphylococcus aureus; experiment: Synergistic […] activity against methicillin-resistant Staphylococcus aureus NCTC10442 assessed as fractional inhibitory concentration index incubated for 22 to 24 hrs in presence of linezolid by CLSI based broth microdilution method; format: functional; settings: time 22-24 hrs
[8] = test system: Staphylococcus aureus; experiment: Antibacterial activity against methicillin-resistant Staphylococcus aureus NCTC10442 assessed as reduction in microbial growth incubated for 22 to 24 hrs by CLSI based broth microdilution method; format: functional; settings: time 22-24 hrs
[9] = Cytotoxicity against mouse NCTC clone 929 cells assessed as viable cells at 12.5 ug/ml incubated for 24 hrs by CCK-8 assay relative to control; format: toxicity, cell-based; settings: NCTC clone 929 (L929) cells, at 12.5 µg/mL, read-out: Activity
[10] = Cytotoxicity against mouse NCTC clone 929 cells assessed as viable cells at 25 ug/ml incubated for 24 hrs by CCK-8 assay relative to control; format: toxicity, cell-based; settings: NCTC clone 929 (L929) cells, at 25 µg/mL, read-out: Activity
[11] = test system: Staphylococcus aureus; experiment: Synergistic […] activity against methicillin-resistant Staphylococcus aureus NCTC10442 assessed as fractional inhibitory concentration index incubated for 22 to 24 hrs in presence of fusidic acid by CLSI based broth microdilution method; format: functional; settings: time 22-24 hrs
[12] = test system: Staphylococcus aureus; experiment: Bactericidal activity against methicillin-resistant Staphylococcus aureus NCTC10442 assessed as cell killing at 4 times of MIC measured with in 2 hrs by time kill assay relative to control; format: functional
[13] = test system: Staphylococcus aureus; experiment: Bactericidal activity against Staphylococcus aureus ATCC29213 assessed as log reduction in bacterial load at 8 times of MIC measured with in 4 hrs by time kill assay; format: functional
[14] = test system: Staphylococcus aureus; experiment: Synergistic […] activity against Staphylococcus aureus ATCC29213 assessed as fractional inhibitory concentration index incubated for 22 to 24 hrs in presence of teicoplanin by CLSI based broth microdilution method; format: functional; settings: time 22-24 hrs
[15] = Cytotoxicity against mouse NCTC clone 929 cells assessed reduction in cell viability incubated for 24 hrs by CCK-8 assay; format: toxicity, cell-based; settings: NCTC clone 929 (L929) cells
[16] = Hemolytic activity against rabbit RBC incubated for 1 hr by multimode plate reader; format: toxicity, cell-based, Oryctolagus cuniculus, Erythrocyte; settings: rabbit red blood cells (erythrocytes)
[17] = test system: Staphylococcus aureus; experiment: Antibacterial activity against methicillin-resistant Staphylococcus aureus N315 assessed as reduction in bacterial growth incubated for 22 to 24 hrs in presence of MgCl2 by CLSI based broth microdilution method; format: functional; settings: time 22-24 hrs
[18] = test system: Staphylococcus aureus; experiment: Antibacterial activity against methicillin-resistant Staphylococcus aureus N315 assessed as reduction in bacterial growth incubated for 22 to 24 hrs in presence of NaCl by CLSI based broth microdilution method; format: functional; settings: time 22-24 hrs
[19] = test system: Klebsiella pneumoniae; experiment: Synergistic […] activity against Klebsiella pneumoniae ATCC10031 assessed as fractional inhibitory concentration index incubated for 22 to 24 hrs in presence of levofloxacin by CLSI based broth microdilution method; format: functional; settings: time 22-24 hrs
[20] = test system: Acinetobacter baumannii; experiment: Synergistic […] activity against Acinetobacter baumannii ATCC17978 assessed as fractional inhibitory concentration index incubated for 22 to 24 hrs in presence of meropenem by CLSI based broth microdilution method; format: functional; settings: time 22-24 hrs
[21] = test system: Staphylococcus aureus; experiment: Antibacterial activity against Staphylococcus aureus ATCC25923 assessed as reduction in microbial growth incubated for 22 to 24 hrs by CLSI based broth microdilution method; format: functional; settings: time 22-24 hrs
[22] = test system: Staphylococcus epidermidis; experiment: Antibacterial activity against Staphylococcus epidermidis ATCC12228 assessed as reduction in microbial growth incubated for 22 to 24 hrs by CLSI based broth microdilution method; format: functional; settings: time 22-24 hrs
[23] = test system: Staphylococcus aureus; experiment: Antibacterial activity against methicillin-resistant Staphylococcus aureus NCTC10442 assessed as reduction in bacterial growth incubated for 22 to 24 hrs in presence of ZnSO4.7H2O by CLSI based broth microdilution method; format: functional; settings: time 22-24 hrs
[24] = test system: Staphylococcus aureus; experiment: Antibacterial activity against methicillin-resistant Staphylococcus aureus N315 assessed as reduction in bacterial growth incubated for 22 to 24 hrs in presence of CaCl2 by CLSI based broth microdilution method; format: functional; settings: time 22-24 hrs
[25] = Cytotoxicity against HEK293 cells assessed reduction in cell viability incubated for 24 hrs by CCK-8 assay; format: toxicity, cell-based; settings: human
[26] = test system: Staphylococcus aureus; experiment: Antibacterial activity against methicillin-resistant Staphylococcus aureus NCTC10442 assessed as reduction in bacterial growth incubated for 22 to 24 hrs in presence of FeCl2 by CLSI based broth microdilution method; format: functional; settings: time 22-24 hrs
[27] = test system: Acinetobacter baumannii; experiment: Antibacterial activity against Acinetobacter baumannii R28889 assessed as reduction in microbial growth incubated for 22 to 24 hrs by CLSI based broth microdilution method; format: functional; settings: time 22-24 hrs
[28] = test system: Staphylococcus aureus; experiment: Bactericidal activity against Staphylococcus aureus ATCC29213 assessed as log reduction in bacterial load at 8 times of MIC measured with in 0.5 hrs by time kill assay; format: functional
[29] = test system: Staphylococcus aureus; experiment: Antibacterial activity against methicillin-resistant Staphylococcus aureus NCTC10442 assessed as reduction in bacterial growth incubated for 22 to 24 hrs in presence of CaCl2 by CLSI based broth microdilution method; format: functional; settings: time 22-24 hrs
[30] = test system: Staphylococcus aureus; experiment: Antibacterial activity against methicillin-resistant Staphylococcus aureus NCTC10442 assessed as reduction in bacterial growth incubated for 22 to 24 hrs in presence of NaCl by CLSI based broth microdilution method; format: functional; settings: time 22-24 hrs
[31] = test system: Staphylococcus aureus; experiment: Antibacterial activity against methicillin-resistant Staphylococcus aureus N315 assessed as reduction in microbial growth incubated for 22 to 24 hrs by CLSI based broth microdilution method; format: functional; settings: time 22-24 hrs
[32] = test system: Acinetobacter baumannii; experiment: Synergistic […] activity against Acinetobacter baumannii ATCC17978 assessed as fractional inhibitory concentration index incubated for 22 to 24 hrs in presence of tobramycin by CLSI based broth microdilution method; format: functional; settings: time 22-24 hrs
[33] = test system: Klebsiella pneumoniae; experiment: Synergistic […] activity against Klebsiella pneumoniae ATCC10031 assessed as fractional inhibitory concentration index incubated for 22 to 24 hrs in presence of meropenem by CLSI based broth microdilution method; format: functional; settings: time 22-24 hrs
[34] = test system: Staphylococcus aureus; experiment: Synergistic […] activity against methicillin-resistant Staphylococcus aureus NCTC10442 assessed as fractional inhibitory concentration index incubated for 22 to 24 hrs in presence of mupirocin by CLSI based broth microdilution method; format: functional; settings: time 22-24 hrs

Structure (SMILES): COC(=O)[C@H](CCCNC(=N)N)NC(=O)[C@H](CCCNC(=N)N)NC(=O)COc1ccc(S(=O)(=O)c2ccc(OC/C=C(/C)CCC=C(C)C)cc2)cc1
- fractional inhibitory concentration index (FICI) [1]: 0.28
- Activity [2]: Active
- fractional inhibitory concentration index (FICI) [3]: 0.28
- viability at 24 h, 100 ug/ml [4]: 79.4%
- Activity [5]: Active
- MIC [6]: 1.56 µg/mL
- fractional inhibitory concentration index (FICI) [7]: 0.27
- MIC [8]: 0.78 µg/mL
- viability at 24 h, 12.5 ug/ml [9]: 88.9%
- viability at 24 h, 25 ug/ml [10]: 87.6%
- fractional inhibitory concentration index (FICI) [11]: 0.5
- Activity [12]: 99.99%
- log(activity) [13]: 3
- fractional inhibitory concentration index (FICI) [14]: 0.31
- CC50 at 24 h [15]: > 100 µg/mL
- HC50 at 1 h [16]: > 200 µg/mL
- MIC [17]: 1.56 µg/mL
- MIC [18]: 1.56 µg/mL
- fractional inhibitory concentration index (FICI) [19]: 0.56
- fractional inhibitory concentration index (FICI) [20]: 0.25
- MIC [21]: 3.12 µg/mL
- MIC [22]: 1.56 µg/mL
- MIC [23]: 1.56 µg/mL
- MIC [24]: 3.12 µg/mL
- CC50 at 24 h [25]: > 100 µg/mL
- MIC [26]: 1.56 µg/mL
- MIC [27]: 6.25 µg/mL
- log(activity) [28]: 3
- MIC [29]: 3.12 µg/mL
- MIC [30]: 1.56 µg/mL
- MIC [31]: 0.78 µg/mL
- fractional inhibitory concentration index (FICI) [32]: 0.56
- fractional inhibitory concentration index (FICI) [33]: 0.56
- fractional inhibitory concentration index (FICI) [34]: 1

— ChEMBL document CHEMBL5584236, “Development of novel bisphenol derivatives with a membrane-targeting mechanism as potent gram-positive antibacterial agents” (Eur J Med Chem, 2024)
